Data published in the NIST ThermoML archive (doi:10.1016/j.jct.2009.06.019).
± gives the expanded uncertainty stated by the source.

Test: xn = mol fraction of the nth substance listed
Conditions: 101.3 kPa, Liquid, Vibrating tube method

Work on CN1CCN(C)C1=O [1,3-dimethyl-2-imidazolidinone] + [2H]O[2H] yielded a mass density (278.15 K, x1 = 0.001014) of 1105.53 ± 0.07 kg/m3, a mass density (278.15 K, x1 = 0.001853) of 1105.6 ± 0.07 kg/m3 and a mass density (278.15 K, x1 = 0.002463) of 1105.67 ± 0.07 kg/m3. For the same compound, the mass density (278.15 K, x1 = 0.003372) was 1105.77 ± 0.07 kg/m3, the mass density (278.15 K, x1 = 0.004298) was 1105.89 ± 0.07 kg/m3 and the mass density (278.15 K, x1 = 0.004982) was 1105.97 ± 0.08 kg/m3. For the same compound, the mass density (278.15 K, x1 = 0.006229) was 1106.16 ± 0.08 kg/m3, the mass density (278.15 K, x1 = 0.007163) was 1106.33 ± 0.08 kg/m3 and the mass density (278.15 K, x1 = 0.008054) was 1106.48 ± 0.08 kg/m3. The mass density (278.15 K, x1 = 0.009084) was 1106.65 ± 0.08 kg/m3, the mass density (278.15 K, x1 = 0.01051) was 1106.96 ± 0.08 kg/m3 and the mass density (288.15 K, x1 = 0.001014) was 1105.7 ± 0.07 kg/m3. For the same compound, the mass density (288.15 K, x1 = 0.001853) was 1105.72 ± 0.07 kg/m3, the mass density (288.15 K, x1 = 0.002463) was 1105.72 ± 0.07 kg/m3 and the mass density (288.15 K, x1 = 0.003372) was 1105.73 ± 0.07 kg/m3. The mass density (288.15 K, x1 = 0.004298) was 1105.78 ± 0.07 kg/m3, the mass density (288.15 K, x1 = 0.004982) was 1105.83 ± 0.07 kg/m3 and the mass density (288.15 K, x1 = 0.006229) was 1105.89 ± 0.08 kg/m3. It also gave a mass density (288.15 K, x1 = 0.007163) of 1105.96 ± 0.08 kg/m3, a mass density (288.15 K, x1 = 0.008054) of 1106.05 ± 0.08 kg/m3 and a mass density (288.15 K, x1 = 0.009084) of 1106.13 ± 0.08 kg/m3. It also gave a mass density (288.15 K, x1 = 0.01051) of 1106.33 ± 0.08 kg/m3, a mass density (298.15 K, x1 = 0.001014) of 1104.24 ± 0.07 kg/m3 and a mass density (298.15 K, x1 = 0.001853) of 1104.2 ± 0.07 kg/m3. For the same compound, the mass density (298.15 K, x1 = 0.002463) was 1104.15 ± 0.07 kg/m3, the mass density (298.15 K, x1 = 0.003372) was 1104.13 ± 0.07 kg/m3 and the mass density (298.15 K, x1 = 0.004298) was 1104.08 ± 0.07 kg/m3. It also gave a mass density (298.15 K, x1 = 0.004982) of 1104.06 ± 0.07 kg/m3, a mass density (298.15 K, x1 = 0.006229) of 1104.06 ± 0.07 kg/m3 and a mass density (298.15 K, x1 = 0.007163) of 1104.06 ± 0.07 kg/m3. For the same compound, the mass density (298.15 K, x1 = 0.008054) was 1104.07 ± 0.07 kg/m3, the mass density (298.15 K, x1 = 0.009084) was 1104.08 ± 0.07 kg/m3 and the mass density (298.15 K, x1 = 0.01051) was 1104.16 ± 0.07 kg/m3. It also gave a mass density (308.15 K, x1 = 0.001014) of 1101.46 ± 0.07 kg/m3, a mass density (308.15 K, x1 = 0.001853) of 1101.34 ± 0.07 kg/m3 and a mass density (308.15 K, x1 = 0.002463) of 1101.29 ± 0.07 kg/m3. The mass density (308.15 K, x1 = 0.003372) was 1101.19 ± 0.07 kg/m3, the mass density (308.15 K, x1 = 0.004298) was 1101.13 ± 0.07 kg/m3 and the mass density (308.15 K, x1 = 0.004982) was 1101.05 ± 0.07 kg/m3. It also gave a mass density (308.15 K, x1 = 0.006229) of 1100.95 ± 0.07 kg/m3, a mass density (308.15 K, x1 = 0.007163) of 1100.89 ± 0.07 kg/m3 and a mass density (308.15 K, x1 = 0.008054) of 1100.87 ± 0.07 kg/m3. For the same compound, the mass density (308.15 K, x1 = 0.009084) was 1100.81 ± 0.07 kg/m3, the mass density (308.15 K, x1 = 0.01051) was 1100.77 ± 0.07 kg/m3 and the mass density (313.15 K, x1 = 0.001014) was 1099.65 ± 0.07 kg/m3. For the same compound, the mass density (313.15 K, x1 = 0.001853) was 1099.52 ± 0.07 kg/m3, the mass density (313.15 K, x1 = 0.002463) was 1099.44 ± 0.07 kg/m3 and the mass density (313.15 K, x1 = 0.003372) was 1099.33 ± 0.07 kg/m3. It also gave a mass density (313.15 K, x1 = 0.004298) of 1099.22 ± 0.07 kg/m3, a mass density (313.15 K, x1 = 0.004982) of 1099.13 ± 0.07 kg/m3 and a mass density (313.15 K, x1 = 0.006229) of 1099 ± 0.07 kg/m3. The mass density (313.15 K, x1 = 0.007163) was 1098.91 ± 0.07 kg/m3, the mass density (313.15 K, x1 = 0.008054) was 1098.85 ± 0.07 kg/m3 and the mass density (313.15 K, x1 = 0.009084) was 1098.77 ± 0.07 kg/m3. For the same compound, the mass density (313.15 K, x1 = 0.01051) was 1098.67 ± 0.07 kg/m3, the mass density (318.15 K, x1 = 0.001014) was 1097.62 ± 0.07 kg/m3 and the mass density (318.15 K, x1 = 0.001853) was 1097.48 ± 0.07 kg/m3. For the same compound, the mass density (318.15 K, x1 = 0.002463) was 1097.38 ± 0.07 kg/m3, the mass density (318.15 K, x1 = 0.003372) was 1097.23 ± 0.07 kg/m3 and the mass density (318.15 K, x1 = 0.004298) was 1097.09 ± 0.07 kg/m3. For the same compound, the mass density (318.15 K, x1 = 0.004982) was 1097.01 ± 0.07 kg/m3, the mass density (318.15 K, x1 = 0.006229) was 1096.83 ± 0.07 kg/m3 and the mass density (318.15 K, x1 = 0.007163) was 1096.72 ± 0.07 kg/m3. For the same compound, the mass density (318.15 K, x1 = 0.008054) was 1096.62 ± 0.07 kg/m3, the mass density (318.15 K, x1 = 0.009084) was 1096.51 ± 0.07 kg/m3 and the mass density (318.15 K, x1 = 0.01051) was 1096.37 ± 0.07 kg/m3.
[2H]O[2H] [water-d2] + CN1CCN(C)C1=O showed a mass density (278.15 K, x2 = 0) of 1105.46 ± 0.07 kg/m3, a mass density (288.15 K, x2 = 0) of 1105.7 ± 0.07 kg/m3 and a mass density (298.15 K, x2 = 0) of 1104.31 ± 0.07 kg/m3. It also gave a mass density (308.15 K, x2 = 0) of 1101.59 ± 0.07 kg/m3, a mass density (313.15 K, x2 = 0) of 1099.83 ± 0.07 kg/m3 and a mass density (318.15 K, x2 = 0) of 1097.81 ± 0.07 kg/m3.
